Data on 4 compounds can be found in patent publication US5585385A, “Heterocyclic compounds, their production and use as tachykinin reactor antagonists” (Takeda Chemical Industries, Ltd., priority 1993, dated 1996).

Each structure is given as a SMILES string.

Assay [1] relates to plasma extravasation induced by capsaicin in trachea. Kind of assay: Inhibitory effect on plasma extravasation induced by capsaicin in trachea of guinea pigs. The assay is classed as in vivo, guinea pigs (Hartley type white male). Conditions: Cavia porcellus, iv, 5 min, 5 min before capsaicin (150 μg/kg i.v.), guinea pig trachea, n=6; for inhibition in vivo at 0.03 mg/kg: 0.03 mg/kg i.v.; for inhibition in vivo at 0.1 mg/kg: 0.1 mg/kg i.v. As to the method: Inhibitory effect on plasma extravasation induced by capsaicin in trachea of guinea pigs
Guinea pigs (Hartley type white male guinea pigs), (n=6) were anesthetized with 35 mg/kg of pentobarbital injected intraperitoneally (i.p.), then test compounds were administered intravenously (i.v.). After 5 minutes, a mixed solution of capsaicin (150 μg/kg) and Evans' blue dye (20 mg/kg) was administered intravenously to cause reaction. Ten minutes later, test animals were sacrificed by cutting the aorta, then perfused through pulmonary artery with 50 ml of physiological saline. The trachea was excised, and its wet weight was measured. The trachea was incubated at room temperature in 1 ml of acetone-0.3% sodium sulfate (7:3) overnight and Evans' blue dye was extracted from the trachea. The extract solution was centrifuged at 2800 rpm for 5 minutes. The amount of Evans' blue dye in the supernatant was quantified by measuring absorbance at […].
Plasma extravasation was expressed in terms of the amount of Evans' blue dye (μg) relative to the weight of the trachea (g). The efficacy of the drug was evaluated by calculating the % inhibition in accordance with the following formula. [formula] A: the amount of Evan's blue dye (μg/g) in each test animal B: the mean amount of Evan's blue dye (μg/g) of the group untreated with capsaicin.
C: the mean amount of Evan's blue dye (μg/g) of control group

A further assay addresses T1, substance P receptor (Homo sapiens, UniProt P25103).
T1 construct: The receptor was prepared from human lymphoblast cells (IM-9); endogenous in cells; host or cells: IM-9 human lymphoblast cells (crude membrane preparation)
As to the kind of experiment: Radioligand receptor binding inhibitory activity using receptor from human lymphoblast cells (IM-9), 125I-BHSP. Conditions: human IM-9 cell receptor, 25° C., 30 minutes, pH 7.4, n=1. The procedure: Radioligand receptor binding inhibitory activity
Binding inhibitory activity using receptor from human lymphoblast cells (IM-9)
The method of A. Margaret "Molecular Pharmacology 42, p.458 (1992)" was modified and used. The receptor was prepared from human lymphoblast cells (IM-9). IM-9 cells (2×10^5 cells/ml) were inoculated and incubated for 3 days (one liter), which was then subjected to centrifuge for 5 minutes at 500×g to obtain cell pellets. The pellets were washed once with phosphate buffer (Flow Laboratories, CAT. No. 28-103-05), which were then crushed using Polytron.homogenizer "Kinematika, Germany" in 30 ml of 50 mM Tris-HCl buffer (pH 7.4) containing 120 mM sodium chloride, 5 mM potassium chloride, 2 μg/ml chymostatin, 40 μg/ml bacitracin, 5 μg/ml phosphoramidon, 0.5 mM phenylmethyl sulfonyl fluoride, 1 mM ethylenediamine tetra-acetic acid, which was subjected to centrifuge at 40,000×g for 20 minutes. The residue was washed twice with 30 ml of the above-mentioned buffer, which was then preserved frozen (-80° C.) as a specimen of the receptor.
The specimen was suspended in a reaction buffer (50 mM Tri-HCl buffer (pH 7.4), 0.02% bovine serum albumin, 1 mM phenylmethylsulfonyl fluoride, 2 μg/chymostatin, 40 μg/ml bacitracin, 3 mM manganese chloride) and 100 ul portion was the suspension was used in the reaction. After addition of the sample and ^125 I-BHSP (0.46 KBq), the reaction was allowed to proceed in 0.2 ml of reaction buffer at 25° C. for 30 minutes. The amount of nonspecific binding was determined by adding substance P at a final concentration of 2×10^-6 M. After the reaction, using a cell harvester (290 PHD, Cambridge Technology, Inc, U.S.A.), rapid filtration was carried out through a glass filter (GF/B, Whatman, U.S.A.) to stop the reaction. After washing three times with 250 ul of 50 mM of Tris-HCl buffer (pH 7.4) containing 0.02% bovine serum albumin, the radioactivity remaining on the filter was determined with a gamma counter. Before use, the filter was immersed in 0.1% polyethyleneimine for 24 hours and air-dried. […] (Radioligand means substance P labelled with ^125 I.) The number of this experiment is one.

T1 sequence (P25103 whole entry): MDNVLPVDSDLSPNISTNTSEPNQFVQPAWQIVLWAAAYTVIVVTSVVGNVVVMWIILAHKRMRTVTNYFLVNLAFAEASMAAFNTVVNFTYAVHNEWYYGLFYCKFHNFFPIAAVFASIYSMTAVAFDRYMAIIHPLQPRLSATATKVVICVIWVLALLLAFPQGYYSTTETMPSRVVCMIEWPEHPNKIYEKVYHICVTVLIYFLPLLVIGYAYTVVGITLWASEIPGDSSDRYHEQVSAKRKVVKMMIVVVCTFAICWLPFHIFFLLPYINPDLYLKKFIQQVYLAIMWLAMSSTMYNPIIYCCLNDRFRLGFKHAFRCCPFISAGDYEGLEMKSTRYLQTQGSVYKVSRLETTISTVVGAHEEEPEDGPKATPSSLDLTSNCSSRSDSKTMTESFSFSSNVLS

The compound `Cc1ccc(-c2c(C(=O)N(C)Cc3cc(C(F)(F)F)cc(C(F)(F)F)c3)n(C)c(=O)c3ncccc23)cc1` [Example 56, N-[3,5-Bis(trifluoromethyl)benzyl]-7,8-dihydro-N, 7-dimethyl-5-(4-methylphenyl)-8-oxo-6-pyrido[3,4-b]pyridinecarboxamide] came in with an inhibition in vivo at 0.03 mg/kg in assay [1] of 58.1%. The IC50 on substance P receptor worked out at 0.34 nM.

`COc1ccc(-c2c(C(=O)N(C)Cc3cc(C(F)(F)F)cc(C(F)(F)F)c3)n(C)c(=O)c3ncccc23)cc1` [Example 57, N-[3,5-Bis(trifluoromethyl)benzyl]-7,8-dihydro-5-(4-methoxyphenyl)-N,7-dimethyl-8-oxo-6-pyrido[3,4-b]pyridinecarboxamide]: the inhibition in vivo at 0.1 mg/kg in assay [1] came to 51.4%. The compound also came in with an IC50 on substance P receptor of 3.8 nM.

`Cc1ccc(-c2c(C(=O)N(C)Cc3cc(C(F)(F)F)cc(C(F)(F)F)c3)n(C)c(=O)c3cnccc23)cc1` [Example 58, N-[3,5-Bis(trifluoromethyl)benzyl]-1,2-dihydro-N, 2-dimethyl-4-(4-methylphenyl)-1-oxo-3-pyrido[3,4-c]pyridinecarboxamide] registered an inhibition in vivo at 0.1 mg/kg in assay [1] of 35.2%. At substance P receptor, this compound yielded an IC50 of 0.72 nM.

Take `Cc1ccc(-c2c3c(c(=O)n(C)c2C(=O)N(C)Cc2cc(C(F)(F)F)cc(C(F)(F)F)c2)CN(C)CC3)cc1` [Example 59, N-[3,5-Bis(trifluoromethyl)benzyl]-1,2,5,6,7,8-hexahydro-N,2,7-trimethyl-4-(4-methylphenyl)-1-oxo-3-pyrido[3,4-c]pyridinecarboxamide]: 0.03 mg/kg produced 55% inhibition in vivo in assay [1]. In addition, the IC50 on substance P receptor is 0.12 nM.

By inhibition in vivo is commonly meant the share of the control response that was lost under treatment. Read a low inhibition in vivo as little suppression. One may read the IC50 as the concentration needed to halve the response being measured. A lower IC50 goes with inhibition by little substance.
